This note sets out measurements from a melting point compilation (Tetko et al.; mined from patent text by program, amines drawn as free bases though some values may be those of a salt).

Bounds are passed on as bounds.

Compound `Nc1cc(-c2nnc(SCc3ccc(F)cc3)o2)ccn1` had a melting point of 200 to 201 °C.

The compound `COc1nc(C(F)(F)F)cc(=O)n1-c1cc(C(=O)N(C)OC)c(Cl)cc1F` yielded a melting point of 119 °C.

Take `CC(=O)Nc1ccc(-c2c[nH]c(=O)cn2)cc1`: the melting point was 268 to 275 °C.

As to `Cc1nc2ccccc2n1Cc1ccc(C(=O)O)c2ccccc12`, the melting point lay within 292 to 293 °C.

As for `CC(C)C(c1cncnc1C=NO)N(C)C(=O)Cc1ccccc1` (stereo not drawn), the melting point is 171 to 172 °C.

Consider `CC(=O)NCCn1ccc2c1-c1cc(Cl)ccc1CC2`, for which the melting point was in the range of 144 to 146 °C.

The compound `CC12C=CC(=O)C=C1CCC1C2C(=O)CC2(C)C(SCc3ccc(Cl)c(Cl)c3)CCC12` (stereo not drawn) yielded a melting point of 131 to 133 °C.

Compound `CN1CC2CN(C)CC(C1)C2OC(=O)c1ccccc1` (stereo not drawn) displayed a melting point of 100 to 102 °C.

Turning to `O=S(=O)(Nc1ncnc(Cl)c1-c1ccc(-c2ccccc2)cc1)c1ccc(Cl)cc1`, the melting point lay within 234 to 235 °C.

Regarding `CCCc1cc(OCc2ccc(-c3ccccc3-c3nnn(C(c4ccccc4)(c4ccccc4)c4ccccc4)n3)cc2)c(C(=O)OC)c(C)n1`, the melting point was 61 to 64 °C.

Consider `O=C(Nc1nc(-c2ccco2)c(C(=O)c2ccncn2)s1)c1ccncc1`, for which the melting point is over 300 °C.

`Cc1ccsc1C(=O)Cc1ccc(C(F)(F)F)cc1[N+](=O)[O-]` returned a melting point of 120 to 122 °C.

The compound `CCCC(c1cc(C(=O)O)ccc1OCc1ccc(Br)cc1)n1ccnc1` (stereo not drawn) displayed a melting point of 187 to 189 °C.

In the case of `NS(=O)(=O)c1ccc(CCNC(=O)c2nc(-c3ccccc3)no2)cc1`, the melting point was in the range of 217 to 218 °C.

Compound `OCC1(CO)CC2C=CC1C2` (stereo not drawn) returned a melting point of 110 °C.

`CC(=O)Nc1ccc(SSc2ccc(NC(C)=O)cc2C(=O)NC(CC(C)C)C(=O)O)c(C(=O)NC(CC(C)C)C(=O)O)c1` (stereo not drawn) gave a melting point of 241 to 242 °C.

`O=c1[nH]c2cc([N+](=O)[O-])c(S(=O)(=O)NCCO)cc2[nH]c1=O` showed a melting point of 281 to 289 °C.

`COc1ccc(CN(C)CCc2ccc(NC(=O)c3cccc4c(=O)c5cccc(OC)c5[nH]c34)cc2)cc1OC` registered a melting point of 172 °C.

Regarding `Cc1cccc(NC(=O)c2ccc(C(=O)N3Cc4ccccc4Cc4ccccc43)cc2)c1C`, the melting point lay within 248 to 251 °C.

Take `CCNS(=O)(=O)CC(=O)C=C(C)N`: the melting point lay within 112 to 114 °C.

`COc1cc(N)c(Cl)cc1C(=O)NC1CNCCn2c1nc(-c1ccncn1)cc2=O` (stereo not drawn): the melting point was in the range of 277 to 279 °C.

`CCCn1c(=O)c2[nH]c(C3CCCC3)nc2n(CCc2ccc(N)cc2)c1=O` registered a melting point of 248 to 250 °C.

With `Cc1ccc(-c2ccc(C(=O)Nc3ccc4cc(CN5CCCC5)cnc4c3)c(F)c2)cc1`, the melting point was 173 °C.

The compound `COC(=O)NNc1cc(C)cc2c1OC(C)C2` (stereo not drawn) registered a melting point of 82 to 84 °C.

For the compound `COc1ccc(C=C(C#N)c2c[nH]c3ccccc23)cc1OC`, the melting point is 139 to 141 °C.

The compound `COc1ccc(CN(C)CCCOc2cccc(NC(=O)c3cccc4c(=O)c5cccc(OC)c5[nH]c34)c2)cc1OC` showed a melting point of 124 °C.

`CC(=O)c1cccc(-c2ccc(OC[C@H](O)CCc3cccnc3)cc2)c1` gave a melting point of 58 to 60 °C.

`CN(C)c1ccc(Nc2ccccc2)cc1` returned a melting point of 163 to 166 °C.

In turn, `c1ccc(-c2ccn3cnnc3n2)cc1` registered a melting point of 192 °C.

In turn, `Cc1nc(-c2cccnc2)cs1` displayed a melting point of 81 °C.

In the case of `COc1nc(NC(=O)NS(=O)(=O)c2ccccc2CCC(F)(F)F)nc(OC)n1`, the melting point fell in the range of 177 to 178 °C.

The compound `CCCCCc1cc2c(nc(O)n2Cc2cccnc2)c(N)n1` registered a melting point of 243 to 245 °C.

In turn, `CCOC(=O)c1cnn2c(-c3cccc(C)n3)ccnc12` came in with a melting point of 135 to 137 °C.

For the compound `Cc1ncnc(C)c1C(=O)O`, the melting point fell in the range of 203 to 204 °C.

For `CCCCC(O)CN1N=CCCC1c1ccc(F)cc1` (stereo not drawn), the melting point lay in the range of 75 to 77 °C.

`Clc1ccc2c(c1)Cc1ccccc1CN2` showed a melting point of 137 to 141 °C.

For `CCCOCCOc1ccc(-c2ccc3c(c2)C=C(C(=O)O)CCS3(=O)=O)cc1`, the melting point lay within 176 to 179 °C.

Compound `Cc1cc2c(cc1C(F)(F)F)N(c1ccc(C(=O)O)cc1)CCC[C@@H]2N(Cc1cc(C(F)(F)F)cc(C(F)(F)F)c1)c1nnn(C)n1` showed a melting point of 101 to 105 °C.

As for `O=c1c2cc(OCc3ccccc3)ccc2[nH]c2c([N+](=O)[O-])ccc(Cl)c12`, the melting point is 216 to 217 °C.

In the case of `CCS(=O)(=O)CCC(=O)NNC(=O)N1Cc2cccc(Cl)c2Oc2ccccc21`, the melting point was in the range of 195 to 197 °C.

For the compound `Cc1cccc(Nc2cc(Nc3ccc(OCC(N)=O)cc3)ncn2)c1`, the melting point lay within 212 to 215 °C.

Take `CNCCC(O)(COc1ccccc1)c1ccccc1` (stereo not drawn): the melting point fell in the range of 98 to 99 °C.

In the case of `CC(C)(C)OC(=O)Nc1ccc(-c2ccccc2F)cc1[N+](=O)[O-]`, the melting point is 131 to 133 °C.

For `O=Cc1ccc2ccc(-c3ccccc3)nc2c1`, the melting point was 108 °C.

`COc1ccc2c(Nc3cccc(CCO)c3)c3ccccc3nc2c1` came in with a melting point of 186 to 188 °C.

On to `CCC[C@H](NC(=O)CNC)C(=O)N[C@@H](CCCNC(=N)N)C(=O)N[C@@H](C)P(=O)(O)O`, for which the melting point came to 200 °C.

`CC(C)(C)OC(=O)N1CCC(c2nc3cc(-c4ccc(C(N)=O)c(F)c4)ccc3o2)CC1`: the melting point lay within 202 to 206 °C.

In the case of `Cc1ccc(-c2cccn2-c2ccc(S(N)(=O)=O)cc2)cc1`, the melting point was in the range of 183 to 184 °C.

For the compound `CN1CCN(C(=O)c2cc(=O)c3c(OCCOc4ccccc4)cccc3o2)CC1`, the melting point fell in the range of 90 to 91.5 °C.

Regarding `N=C(N)Nc1nc(C(=O)Nc2cccc(C(=O)NC(CC(=O)O)c3ccccc3)c2)cs1` (racemic), the melting point came to 235 °C.

`C=CCNC(=O)N1CC(c2ccc(C(C)(C)C)cc2)C1` registered a melting point of 98 to 99 °C.

`CCOC(=O)c1cc2c(cn1)[nH]c1cccc(C=O)c12` showed a melting point of 273 to 276 °C.

With `Nc1ncc(-c2noc(-c3cnn4c(C(F)(F)F)cc(-c5ccc(C(F)(F)F)cc5)nc34)n2)cn1`, the melting point is 254 °C.

As for `CCN(CC)c1ccc2c(c1)OC(=O)C(C)(C#Cc1ccccc1)C2` (stereo not drawn), the melting point lay within 142 to 144 °C.

As to `Cc1cc2nn(C)c(=O)n2nc1-c1cccc(N)c1`, the melting point lay in the range of 192 to 195 °C.

On to `C[C@@H](C(N)=O)c1ccc(NS(=O)(=O)c2ccc(C(F)(F)F)cc2)cc1`, for which the melting point is 178 to 180 °C.

Compound `O=Cc1ccc(OCc2cn3c(Cl)cccc3n2)cc1` yielded a melting point of 126 to 130 °C.

Regarding `Nc1ncc(-c2ccc3ncc(-c4ccc(CO)cc4)n3n2)cc1C(F)(F)F`, the melting point is 290 to 292 °C.

For the compound `Cc1ccc(-c2nc(C(F)(F)F)nn2-c2ccc(S(C)(=O)=O)cc2)cc1`, the melting point lay within 176 to 178 °C.

As to `Nc1ncc(-c2cc(Cl)c([N+](=O)[O-])c(Cl)c2Cl)c(N)n1`, the melting point was in the range of 293 to 295 °C.

`CCN1CCCC1CNC(=O)c1nc(Cl)c(OC)nc1OC` (stereo not drawn) yielded a melting point of 100 to 101 °C.

In the case of `N#Cc1cc(C(=O)CCl)cs1`, the melting point is 94 to 98 °C.

The compound `CC1NC(=O)NN=C1c1ccc(N(C)C)cc1` (stereo not drawn) gave a melting point of 255 to 261 °C.
